“Also recorded” adds a separate entry of the source.
Key:
DDAH promoter = DDAH promoter activation assay (DDAH promoter-Luciferase reporter); type: cell-based
Method: DDAH promoter activation assay. Activation of DDAH promoter was determined using a DDAH promoter-Luciferase reporter assay. DDAH promoter DNA sequence was cloned in pGL4.10 luciferase reporter plasmid. For transfection of HEK-293 cells, the cells were seeded in six well plates at a density of 2.0×10^5 cells/well. After 24 hours, the cells were transfected with the DDAH promoter plasmid by adding 200 ng DNA/well and incubated for 24 hours. Transfected cells were then transferred to 96 well plates at 50,000 cells/well and incubated overnight with various concentrations of the test compounds. The medium was removed from the wells and 20 μL of lysis reagent was added. After 5 min, 100 μL Luciferase assay reagent was added, and luminescence was measured.

DDAH-1 protein [1] = test: DDAH western blot analysis in human pulmonary artery smooth muscle cells; type: cell-based; conditions: 24 hours
Method: (§1) DDAH and Collagen western blot analysis. Human umbilical vein endothelial cells (HUVEC), retinal endothelial cells and vascular smooth muscle cells from Lonza were transferred to 6 well plates at a density of 4.0×10^5/well and incubated overnight. Various concentrations of test compounds were then added. After 24 hours, medium was removed, the cells were scraped and collected in 50 μL of lysis buffer containing 50 mM Tris-HCl, 0.25% deoxycholic acid, 1% NP-40, 1 mM EDTA and protease inhibitor cocktails. Cell extract was subjected to SDS polyacrylamide gel electrophoresis. Proteins from the 12% polyacrylamide gels were transferred to PVDF membranes for westerns and blotted with DDAH or collagen 1 antibodies from Abcam.
(§2) Expression of DDAH was determined in human pulmonary artery smooth muscle cells (FIG. 1A) and human retinal microvascular endothelial cells (FIG. 1B). Cells were treated with different concentrations of VN-317. After 24 hours, cells were extracted in lysis buffer as described under methods. Extracts were subjected to SDS gel electrophoresis. Proteins from SDS gel were transferred to PVDF membrane and for western blotting using DDAH-1 antibodies. […] Therese data illustrate differential modulation of DDAH by VN-317 in different cell types.

DDAH-1 protein [2] = test: DDAH western blot analysis in human retinal microvascular endothelial cells; type: cell-based; conditions: 24 hours
Method: as §1, §2

collagen 1 = test: Collagen western blot analysis in myofibroblast like smooth muscle cells; type: cell-based; conditions: in response to TGF-beta, 48 hours
Method: as §1
Cells were treated with VN-317 in the presence or absence of TGF-beta. After 48 hours, cells were extracted in 50 ul lysis buffer and cell extract was subjected to SDS gel electrophoresis. Proteins from the 12% polyacrylamide gels were transferred to PVDF membranes for westerns and blotted collagen 1a antibodies from Abcam.

monocrotalin induced PAH = test: Rat model of monocrotalin induced PAH; type: in vivo; conditions: 1 mg/kg s.c. once a day
Method: A rat model of monocrotalin induced PAH was used for in vivo studies. Male Sprague Dawley rats about 250 g were purchased from Charles river. PAH was induced by a single s.c. injection of 60 mg/kg monocrotalin. VN-317 (1 mg/kg) or vehicle was administered subcutaneously on day one and once a day thereafter. After 6 weeks, the disease development was determined by pulmonary artery (PA) pressure measurements, echocardiography, and histology. PA pressure was determined by right heart catheterization using a 1.4-F micromanometer-tipped Millar catheter with fluoroscopy guidance. Transthoracic echocardiography was performed using a GE vivid i with 5.0-13.0 MHz il2L-RS linear array transducer. Pulmonary artery acceleration time (PAAT) was measured using pulse-wave Doppler echocardiography with the sample volume centrally positioned in the PA distal to the pulmonary valve. M-mode was applied to measure the right ventricular cavity thickness during end diastole using the parasternal long-axis view obtained from the right side of the rat. Tissue and blood samples were collected at termination. Tissues were fixed in 10% formalin, embedded in paraffin, and then processed for histomorphometry. Macrophage in lung tissues were determined by immunostaining using CD68 antibodies.

[3] = Table 2, ADMA-lowering agents including heterocycles
[4] = Table 1, stilbene-based ADMA-modulating agents
[5] = Table 3, other ADMA-lowering agents
[6] = after 6 weeks, echocardiography

Question: O=C(O)c1cccc(/C=C\c2cccnc2)c1 [VN-381, (Z)-3-(2-(pyridin-3-yl)vinyl)benzoic acid] was tested. Which EC50 (DDAH promoter; [3]) did it give?
Answer: The EC50 was 0.73 nM.

Question: O=C(O)c1cccc(/C=C/c2ccc(O)cc2)c1 [VN-328, (E)-3-(4-hydroxystyryl)benzoic acid] was tested. Which EC50 (DDAH promoter; [4]) did it give?
Answer: Its EC50 is 18.6 nM.

Question: With O=C(O)c1cccc(/C=C\c2ccncc2)c1 [VN-387, (Z)-3-(2-(pyridin-4-yl)vinyl)benzoic acid] as the molecule, how does the EC50 (DDAH promoter; [3]) read?
Answer: Its EC50 is 1.7 nM.

Question: With O=C(O)c1cccc(/C=C/c2cscn2)c1 [VN-366, (E)-3-(2-(thiazol-4-yl)vinyl)benzoic acid] as the molecule, how does the EC50 (DDAH promoter; [3]) read?
Answer: Its EC50 is 1370 nM.

Question: O=C(O)c1cccc(/C=C/c2cccnc2)c1 [VN-354, (E)-3-(2-(pyridin-3-yl)vinyl)benzoic acid] was tested. Which EC50 (DDAH promoter; [3]) did it give?
Answer: Its EC50 is 672 nM.

Question: Which EC50 (DDAH promoter; [3]) does the source give for O=C(O)c1cccc(/C=C/c2cccs2)c1 [VN-368, (E)-3-(2-(thiophen-2-yl)vinyl)benzoic acid] here?
Answer: Its EC50 is 0.79 nM.

Question: With O=C(O)c1cccc(/C=C/c2cccnc2)c1 [VN-353, (E)-3-(2-(pyridin-3-yl)vinyl)benzoic acid] as the molecule, how does the EC50 (DDAH promoter; [3]) read?
Answer: Its EC50 is 58 nM.

Question: How did the EC50 (DDAH promoter; [3]) turn out when O=C(O)c1cccc(/C=C/c2nccs2)c1 [VN-365, (E)-3-(2-(thiazol-2-yl)vinyl)benzoic acid] was run?
Answer: The EC50 was 180 nM.

Question: For COc1ccc(/C=C/c2cccc(C(=O)O)c2)c(C)c1 [VN-333, (E)-3-(4-methoxy-2-methylstyryl)benzoic acid], which EC50 (DDAH promoter; [4]) is on record?
Answer: The EC50 was 1.8 nM.

Question: For O=C(O)c1cccc(/C=C/c2ccc(F)cc2)c1 [VN-390, (E)-3-(4-fluorostyryl)benzoic acid], which EC50 (DDAH promoter; [4]) is on record?
Answer: Its EC50 is 3.4 nM.

Question: O=C(O)c1cccc(/C=C/c2ccc(OCCN3CCOCC3)cc2)c1 [VN-363, (E)-3-(4-(2-morpholinoethoxy)styryl)benzoic acid] was tested. Which EC50 (DDAH promoter; [4]) did it give?
Answer: The EC50 was 0.97 nM.

Question: How did the “EC50 nM” value (DDAH promoter; [4]) turn out when O=C(O)c1cccc(/C=C\c2ccccc2)c1 [VN-339, (Z)-3-styrylbenzoic acid] was run?
Answer: The value was “Ambiguous”.

Question: How did the EC50 (DDAH promoter; [3]) turn out when O=C(O)c1cccc(/C=C/c2ccncc2)c1 [VN-355, (E)-3-(2-(pyridin-4-yl)vinyl)benzoic acid] was run?
Answer: The EC50 was 651 nM.

Question: With O=C(O)c1cccc(/C=C\c2cccc(OCCN3CCOCC3)c2)c1 [VN-388, (Z)-3-(3-(2-morpholinoethoxy)styryl)benzoic acid] as the molecule, how does the “EC50 nM” value (DDAH promoter; [4]) read?
Answer: Its value is “Ambiguous”.

Question: Which EC50 (DDAH promoter; [4]) does the source give for Cc1ccccc1/C=C/c1cccc(C(=O)O)c1 [VN-329, (E)-3-(2-methylstyryl)benzoic acid] here?
Answer: Its EC50 is 8.7 nM.

Question: O=C(O)c1cccc(/C=C\c2ccc(Cl)cc2)c1 [VN-379, (Z)-3-(4-chlorostyryl)benzoic acid] was tested. Which EC50 (DDAH promoter; [4]) did it give?
Answer: The EC50 was 3.9 nM.

Question: O=C(O)c1cccc(/C=C\c2cocn2)c1 [VN-380, (Z)-3-(2-(oxazol-4-yl)vinyl)benzoic acid] was tested. Which EC50 (DDAH promoter; [3]) did it give?
Answer: The EC50 was 0.17 nM.

Question: How did the EC50 (DDAH promoter; [4]) turn out when O=C(O)c1cccc(/C=C\c2ccc(F)cc2)c1 [VN-372, (Z)-3-(4-fluorostyryl)benzoic acid] was run?
Answer: Its EC50 is 10.4 nM.

Question: For COc1ccc(/C=C\c2cccc(C(=O)O)c2)c(C)c1 [VN-342, (Z)-3-(4-methoxy-2-methylstyryl)benzoic acid], which EC50 (DDAH promoter; [4]) is on record?
Answer: Its EC50 is 81.5 nM.

Question: For O=C(O)c1cccc([C@H]2C[C@@H]2c2ccccc2)c1 [VN-347, 3-((1S,2S)-2-phenylcyclopropyl)benzoic acid], which EC50 (DDAH promoter; [5]) is on record?
Answer: Its EC50 is 3.3 nM.

Question: O=C(O)c1cc(/C=C/c2ccccc2)ccc1O [VN-359, (E)-2-hydroxy-5-styrylbenzoic acid] was tested. Which EC50 (DDAH promoter; [4]) did it give?
Answer: The EC50 was 0.16 nM.

Question: Which EC50 (DDAH promoter; [3]) does the source give for O=C(O)c1cccc(/C=C/c2cocn2)c1 [VN-351, (E)-3-(2-(oxazol-4-yl)vinyl)benzoic acid] here?
Answer: The EC50 was 87 nM.

Question: Which EC50 (DDAH promoter; [3]) does the source give for O=C(O)c1cccc(/C=C/c2ccsc2)c1 [VN-369, (E)-3-(2-(thiophen-3-yl)vinyl)benzoic acid] here?
Answer: Its EC50 is 1.23 nM.

Question: With O=C(O)c1cccc(/C=C/c2cccc(OCCN3CCOCC3)c2)c1 [VN-362, (E)-3-(3-(2-morpholinoethoxy)styryl)benzoic acid] as the molecule, how does the EC50 (DDAH promoter; [4]) read?
Answer: Its EC50 is 1.3 nM.

Question: With O=C(O)c1cccc(/C=C/c2cncs2)c1 [VN-367, (E)-3-(2-(thiazol-5-yl)vinyl)benzoic acid] as the molecule, how does the EC50 (DDAH promoter; [3]) read?
Answer: The EC50 was 1060 nM.

Question: With O=C(O)c1cccc(/C=C/c2ccc(Cl)cc2)c1 [VN-371, (E)-3-(4-chlorostyryl)benzoic acid] as the molecule, how does the EC50 (DDAH promoter; [4]) read?
Answer: Its EC50 is 1.4 nM.

Question: Which EC50 (DDAH promoter; [3]) does the source give for O=C(O)c1cccc(/C=C\c2cccs2)c1 [VN-373, (Z)-3-(2-(thiophen-2-yl)vinyl)benzoic acid] here?
Answer: The EC50 was 0.76 nM.

Question: O=C(O)c1cccc(/C=C\c2cncs2)c1 [VN-386, (Z)-3-(2-(thiazol-5-yl)vinyl)benzoic acid] was tested. Which EC50 (DDAH promoter; [3]) did it give?
Answer: The EC50 was 2.8 nM.

Question: Which EC50 (DDAH promoter; [4]) does the source give for O=C(O)c1cccc(/C=C/c2ccccc2)c1 [VN-330, (E)-3-styrylbenzoic acid] here?
Answer: The EC50 was 53 nM.

Question: How did the EC50 (DDAH promoter; [5]) turn out when O=C(O)c1cccc([C@@H]2C[C@@H]2c2ccccc2)c1 [VN-376, 3-((1R,2S)-2-phenylcyclopropyl)benzoic acid] was run?
Answer: The EC50 was 527 nM.

Question: Which results are given for Cc1cc(O)ccc1/C=C/c1cccc(C(=O)O)c1 [VN-317, (E)-3-(4-hydroxy-2-methylstyryl)benzoic acid]?
Answer: EC50 (DDAH promoter; [4]): 7 nM; DDAH-1 protein expression (western blot) (DDAH-1 protein [1]): enhancing; also recorded: enhanced; DDAH-1 protein expression (western blot) (DDAH-1 protein [2]): reducing; also recorded: reduced; collagen production (western blot) (collagen 1): reduced; inflammation in the lung (CD68 immuno-staining) (monocrotalin induced PAH; after 6 weeks): dramatic reduction; also recorded: reduced; pulmonary artery medial thickening (histology) (monocrotalin induced PAH; after 6 weeks): open artery; also recorded: reduced; pulmonary artery pressure (PAP) (monocrotalin induced PAH; after 6 weeks): significantly reduced; vascular disease in the lung (monocrotalin induced PAH; after 6 weeks): reduced; pulmonary artery blood acceleration time (PAAT) (monocrotalin induced PAH; [6]): increased; right ventricle cavity thickness (monocrotalin induced PAH; [6]): reduced; body weight loss (monocrotalin induced PAH; over 6 weeks): prevented; mortality (monocrotalin induced PAH; until week 6, N=6): none and reduced
